Test results as given in patent US9592223B2, “Small molecule inhibitors of MALT1” (Cornell University, priority 2012, dated 2017).

Tests used:
[1] = target: T1, LZ-MALT1 (MALT1 (340-789) fused with a leucine zipper dimerization motif) (Homo sapiens, UniProt Q9UDY8); assay: LZ-MALT1 fluorescence assay (Ac-LRSR-AMC cleavage), screening and concentration response; assay type: biochemical
T1 construct: His tag (N); made in house; host or cells: E. coli
From the text: We reasoned that MALT1 small-molecule inhibitors might be useful chemical tools for studying MALT1 biology and treating MALT1 addicted tumors. However, full-length MALT1 and its paracaspase domain (amino acids 340-789) are naturally present in physiological solutions as a monomer, which has very low proteolytic activity. Caspases generally must homodimerize for maximal catalytic activity (Pop et al., 2006; Walker et al., 1994; Yin et al., 2006) and accordingly the recently reported structures of the paracaspase domain of MALT1 in complex with a peptide inhibitor are dimeric (Wiesmann et al., 2012; Yu et al., 2011). […]
Ac-LRSR-AMC was used as substrate and reactions were measured with excitation/emission wavelengths of 360/465 nm. […] The final percent inhibition was calculated with the formula: {[fluorescencetest compound(T2-T1)−fluorescenceneg ctrl(T2−T1)]/[fluorescencepos ctrl(T2−T1)−fluorescenceneg ctrl(T2−T1)]}×100. […]
The screening consisted of a 20 μl reaction in 384-well black plates (Greiner Bio One, Wemmel, Belgium, catalogue #784076) with 100 nM LZ-MALT1, 200 μM Ac-LRSR-AMC, and 12.5 μM test compound in buffer A (20 mM HEPES pH 7.5, 10 mM KCl, 1.5 mM MgCl2, 1 mM EDTA, 1 mM DTT, 0.01% Triton X-100). The reactions were measured with excitation/emission wavelengths of 360/465 nm using Envision Multilabel Reader (Perkin-Elmer, Waltham, Mass.). […]

[2] = target: T2, LZ-MALT1 (Homo sapiens, UniProt Q9UDY8); assay: Dose-effect and time-course of MALT1 inhibition (pre-incubation, then Ac-LRSR-AMC); assay type: biochemical; settings: pre-incubation 5 to 80 minutes
T2 construct: His tag (N); made in house; host or cells: E. coli
Description: The reactions were monitored in a SpectraMax M5 plate reader (Molecular Devices, Sunnyvale, Calif. USA) with excitation/emission wavelength at 360/465 nm and 20 seconds intervals. Normalized percentage of inhibition was calculated with the following formula: (M(T2-T1)−N(T2-T1))/(P(T2-T1)−N(T2-T1))*100, where M(T2-T1) is the difference signal of compound at time point 200s and 0s, N(T2-T1) is the difference signal of negative control buffer only, P(T2-T1) is the difference signal of positive control Z-VRPR-FMK.

[3] = system: MALT1 dependent ABC-DLBCL cells HBL-1, TMD8, OCI-Ly3 and OCI-Ly10; assay: Growth inhibition, MALT1 dependent cell lines; assay type: cell-based, human; settings: 50 μM, 48 hr
Description: (§1) Endogenous MALT1 activity was evaluated by Western blotting for A20, BCL10 and CYLD; and NF-κB activation, by phospho-IκB-α and total IκB-α. Dependence on MALT1 proteolytic activity for proliferation was tested by 50[…]μM Z-VRPR-FMK treatment for 48 hr. […] The U2932 and HLY1 ABC-DLBCL cell lines harbor mutations in TAK1 and A20, which activate NF-κB signaling downstream of MALT1.
(§2) Cell proliferation was determined by ATP quantification using a luminescent method (CellTiter-Glo, Promega, Madison, Wis.) and Trypan blue dye-exclusion (Sigma, St. Louis, Mo.). Cell viability in drug-treated cells was normalized to their respective controls (fractional viability) and results are given as 1-fractional viability. […]
(§3) DLBCL cell lines were grown in exponential growth conditions during the 48 hr of treatment. Cell proliferation was determined by ATP quantification using a luminescent method (CellTiter-Glo, Promega, Madison, Wis.) and Trypan blue dye-exclusion (Sigma, St. Louis, Mo.). Luminescence was measured using the Synergy4 microplate reader (BioTek Instruments, Winooski, Vt.). Standard curves for each cell line were calculated by plotting the cell number (determined by the Trypan blue method) against their luminescence values and number of cells was calculated accordingly. […]

[4] = system: ABC-DLBCL MALT1 independent cell lines U2932 and HLY-1; assay: Growth inhibition, MALT1 independent ABC-DLBCL cell lines; assay type: cell-based, human; settings: 50 μM, 48 hr
Description: as §1, §2, §3

[5] = system: GCB-DLBCL cell lines OCI-Ly7 and OCI-Ly1; assay: Growth inhibition, GCB-DLBCL cell lines; assay type: cell-based, human; settings: 50 μM, 48 hr
Description: as §1, §2, §3

[6] = system: c-REL; assay: c-REL flow cytometry of whole cells or isolated nuclei, HBL-1 cells; assay type: cell-based, human; settings: 200 nM MI-2 or 50 μM Z-VRPR-FMK, 24 hr
Description: MALT1 mediates c-REL translocation to the nucleus following BCR stimulation (Ferch et al., 2007). […] This selectivity towards c-REL had also been previously shown in MALT1 knockout mice and after MALT1 cleavage inhibition by the MALT1 blocking peptide Z-VRPR-FMK (Ferch et al., 2009; Ferch et al., 2007; Hailfinger et al., 2011).
[…] was studied by flow cytometry. Cells were treated as indicated and total cells or isolated nuclei were prepared and stained for c-REL. Total cells were fixed and permeabilized using the Intrastain kit from Dako (Glostrup, Denmark). For nuclei extraction, cells were resuspended in cold nuclei extraction buffer (320 mM sucrose, 5 mM MgCl2, 10 mM HEPES, 1% Triton X-100 at pH 7.4), incubated for 10 min on ice and washed twice with nuclei wash buffer (320 mM sucrose, 5 mM MgCl2, 10 mM HEPES at pH 7.4, no Triton X-100). Nuclei yield and integrity were confirmed by microscopic examination with trypan blue staining. For labeling, nuclei wash buffer was supplemented with 1% BSA, 0.1% sodium azide and 1:100 c-REL antibody (Cell Signaling). Cells were washed then incubated with Alexa Fluor-488 conjugated secondary antibodies from Invitrogen. Cells were washed again and stained with DAPI followed by flow cytometry.

[7] = system: MALT1^WT NF-κB activation; assay: NF-κB reporter assay in 293T cells, PMA/ionomycin, BCL10 and MALT1 WT; assay type: cell-based; settings: pre-treatment
From the text: Antigen receptor-mediated NF-κB signaling partly depends on MALT1 activity (Ruefli-Brasse et al., 2003; Ruland et al., 2003). […] First, 293T cells were transfected with the NF-κB reporter vector (NF-κB)5-luc2CP-pGL4 (harboring 5 copies of the NF-κB consensus response element and a destabilized Firefly luciferase) and TK-pRL control together with plasmids expressing BCL10 and either MALT1^WT or MALT1^C464A. […] HBL-1 was transfected with the reporter construct (NF-κB)5-luc2CP-pGL4 and TK-pRL control.
Reporter assays were performed in 293T cells seeded at a density of 2×10^5 cells per well of a 12-well dish. 100 ng of (NF-κB)5-Luc2CP-pGL4 and 10 ng of TK-Renilla internal control plasmid were cotransfected along with 25 ng of the indicated plasmids (MIGR1-MALT1^WT or MIGR1-MALT1^C464A and pcDNA4-Flag-Bcl10) using Lipofectamine 2000 (Invitrogen). Lysates were submitted to dual luciferase assays following manufacturer's protocol (Promega). In HBL-1, 5 μg of (NF-κB)5-Luc2CP-pGL4 and 50 ng of TK-Renilla internal control plasmid per 5×10^6 cells were cotransfected using nucleofection (Amaxa, Lonza, Basel, Switzerland). Forty-eight hours after transfection, cells were plated at a density of 5×10^4 cells per well of a 24-well plate and treated as indicated. Lysates were submitted to dual luciferase assays following manufacturer's protocol (Promega).

T2 sequence (Q9UDY8 with tags, fused parts or gaps limits assumed): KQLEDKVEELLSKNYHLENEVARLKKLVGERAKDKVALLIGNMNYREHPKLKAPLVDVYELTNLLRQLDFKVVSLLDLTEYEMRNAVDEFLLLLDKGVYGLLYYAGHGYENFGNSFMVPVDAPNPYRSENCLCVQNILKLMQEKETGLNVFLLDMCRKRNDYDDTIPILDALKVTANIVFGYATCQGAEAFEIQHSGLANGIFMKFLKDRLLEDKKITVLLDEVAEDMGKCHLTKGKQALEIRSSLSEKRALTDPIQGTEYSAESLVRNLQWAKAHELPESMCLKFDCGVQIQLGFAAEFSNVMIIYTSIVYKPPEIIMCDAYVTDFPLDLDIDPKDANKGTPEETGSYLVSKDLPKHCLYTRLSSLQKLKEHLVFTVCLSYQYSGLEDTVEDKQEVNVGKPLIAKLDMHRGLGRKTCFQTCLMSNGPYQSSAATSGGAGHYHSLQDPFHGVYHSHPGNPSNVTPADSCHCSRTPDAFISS
T1 sequence (Q9UDY8 with tags, fused parts or gaps limits assumed): as above

| Compound | biochemical IC50 (in words) [1] | kind of inhibition (time dependence) [2] | percent MALT1 inhibition reached [2] | response of proliferation [3] | response of proliferation [4] | response of proliferation [5] | nuclear c-REL ([6]; isolated nuclei) | whole cell c-REL ([6]; whole cells) | NF-κB induction by PMA/ionomycin stimulation [7] |
| --- | --- | --- | --- | --- | --- | --- | --- | --- | --- |
| COCCOc1nc(-c2cccc(OC)c2)n(-c2ccc(NC(=O)c3cccc([N+](=O)[O-])c3)cc2)n1 [MI-2A2] | lower IC50 | reversible inhibition | ~50% | – | – | – | – | – | – |
| Z-VRPR-FMK [reference compound] | – | – | – | inhibition of proliferation | relatively little response | did not respond | reduced nuclear c-REL | without affecting whole cell levels | significantly inhibited NF-κB induction |
